The target in this experiment is Protein AF-9 (Homo sapiens) (UniProt P42568). Kind of experiment: single-concentration AF9–DOT1L binding disruption – biochemical, AlphaLISA, percent inhibition, MBP-tagged AHD (AID 1794804). The note with it: MBP-AF9 AHD / biotin-DOT1L peptide binding; for inhibition: stronger effect = higher value. In general terms: Alpha assays give light when donor and acceptor beads are brought close together.

Activity calls are given as the source filed them.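 The calls were made as follows: active = inhibition above 55% when tested at 5 µM; inactive = the rest.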

Sequence of Protein AF-9 (Homo sapiens) (P42568 whole entry, looked up): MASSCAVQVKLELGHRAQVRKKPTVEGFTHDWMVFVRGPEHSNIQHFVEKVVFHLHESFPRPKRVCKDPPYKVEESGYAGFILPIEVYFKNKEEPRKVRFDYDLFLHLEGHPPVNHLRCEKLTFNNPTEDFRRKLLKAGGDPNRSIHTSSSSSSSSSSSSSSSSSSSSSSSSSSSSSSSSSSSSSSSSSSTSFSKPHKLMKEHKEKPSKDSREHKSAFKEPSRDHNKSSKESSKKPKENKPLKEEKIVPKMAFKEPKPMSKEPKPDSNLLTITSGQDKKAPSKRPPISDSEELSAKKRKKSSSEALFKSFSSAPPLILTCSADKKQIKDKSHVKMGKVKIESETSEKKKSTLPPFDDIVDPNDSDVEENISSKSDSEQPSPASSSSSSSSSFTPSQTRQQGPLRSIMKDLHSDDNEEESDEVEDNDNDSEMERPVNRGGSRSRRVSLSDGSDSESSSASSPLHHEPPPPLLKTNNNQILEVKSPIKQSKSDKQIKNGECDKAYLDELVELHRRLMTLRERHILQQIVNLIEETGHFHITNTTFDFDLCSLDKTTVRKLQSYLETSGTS

A word on the inhibition: it is how much of the control response was suppressed. `O=C(NCC1CCNCC1)c1cc2ccc(Nc3ccc(OC(F)(F)F)cc3)cc2o1`: the inhibition (at 5 µM) is 23% (inactive).

`CC(=O)Nc1ccc(-c2ccc3cc(C(=O)NCC4CCNCC4)sc3c2)cc1`: the inhibition (at 5 µM) is 0% (inactive).

In the case of `O=C(NCC1CCNCC1)c1cc2ccc(-c3ccc(N4CCNCC4)cc3)cc2[nH]1`, the result was inactive. The compound further gave an inhibition (inhibition, at 20 µM) of 48%. With `CN1CCN(c2ccc(-c3ccc4cc(C(=O)NCC5CCNCC5)oc4c3)cc2)CC1`, the inhibition (at 5 µM) is 32% (inactive). In the case of `O=C(NCC1CCNCC1)c1cc2ccc(-c3ccc(C(=O)N4CCC(N5CCCCC5)CC4)cc3)cc2o1`, the inhibition (at 5 µM) is 0% (inactive).

On to `O=C(NCC1CCNCC1)c1cc2ccc(-c3ccc(N4CCNCC4)cc3)cc2o1`, for which the inhibition (at 5 µM) is 38% (inactive). For `O=C(NCC1CCNCC1)c1cc2ccc(-c3ccc(OC(F)(F)F)cc3)cc2s1`, the inhibition (at 5 µM) is 14% (inactive). For the compound `O=C(NCC1CCNCC1)c1cc2ccc(Oc3ccc(Oc4ccc(Cl)cc4)cc3)cc2o1`, the inhibition (at 5 µM) was 20% (inactive). With `N#Cc1ccc(-c2ccc3cc(C(=O)NCC4CCNCC4)sc3c2)cc1F`, the inhibition (at 5 µM) is 26% (inactive). In the case of `NCc1ccc(-c2ccc3cc(C(=O)NCC4CCNCC4)[nH]c3c2)cc1`, the inhibition (at 5 µM) was 11% (inactive). Turning to `O=C(NCC1CCNCC1)c1cc2ccc(-c3cccc(-c4ccccc4)c3)cc2o1`, the outcome was inactive. Further, the inhibition (inhibition, at 20 µM) turned out to be 49%. For the compound `O=C(NCC1CCNCC1)c1cc2cc(-c3ccc(N4CCNCC4)cc3)ccc2[nH]1`, the inhibition (at 5 µM) was 36% (inactive). Same read-out and setting: next, `O=C(NCC1CCNCC1)c1cc2cc(-c3ccc(C(=O)N4CCCCC4)cc3)ccc2s1`: 31% (inactive); `O=C(NCc1ccc(-c2ccc3cc(C(=O)NCC4CCNCC4)oc3c2)cc1)OCc1ccccc1`: 27% (inactive). `N#Cc1ccc(-c2ccc3sc(C(=O)NCC4CCNCC4)cc3c2)cc1`: the result was inactive. For the same compound, for the setting “inhibition, at 20 µM”, the inhibition turned out to be 30%. For `O=C(NCC1CCNCC1)c1cc2ccc(-c3ccsc3)cc2[nH]1`, the inhibition (at 5 µM) is 10% (inactive). For the compound `O=C(NCC1CCNCC1)c1cc2ccc(-c3ccc(-c4ccccc4)cc3)cc2o1`, the inhibition (at 5 µM) was 0% (inactive). On to `O=C(NCC1CCNCC1)c1cc2ccc(-c3ccc(O)cc3)cc2s1`, for which the inhibition (at 5 µM) is 0% (inactive).

On to `O=C(NCC1CCNCC1)c1cc2ccc(-c3ccc4c(c3)OCCO4)cc2o1`, for which the inhibition (at 5 µM) was 33% (inactive). Consider `O=C(NCC1CCNCC1)c1cc2cc(-c3ccc(C(=O)N4CCCC4)cc3)ccc2s1`, for which the inhibition (at 5 µM) was 0% (inactive). With `CCN(CC)c1ccc(-c2ccc3cc(C(=O)NCC4CCNCC4)sc3c2)cc1`, the inhibition (at 5 µM) was 25% (inactive).

Take `COc1ccc(-c2ccc3cc(C(=O)NCC4CCNCC4)sc3c2)cc1`: the inhibition (at 5 µM) is 43% (inactive). On to `O=C(NCC1CCNCC1)c1cc2ccc(-c3ccc(N4CCOCC4)cc3)cc2s1`, for which the inhibition (at 5 µM) is 40% (inactive). With `O=C(NCC1CCNCC1)c1cc2ccc(N3CCC(N4CCCC4)CC3)cc2s1`, the inhibition (at 5 µM) is 20% (inactive). On to `CC(C)(C)c1cccc(-c2ccc3cc(C(=O)NCC4CCNCC4)[nH]c3c2)c1`, for which the inhibition (at 5 µM) was 17% (inactive).

As to `O=C(NCC1CCNCC1)c1cc2ccc(Oc3ccc(Oc4ccc(Cl)cc4)cc3)cc2s1`, the inhibition (at 5 µM) was 50% (inactive). The same measure, in the same setting: next, `O=C(NCC1CCNCC1)c1cc2ccc(-c3ccc(C(=O)N4CCC(N5CCCCC5)CC4)cc3)cc2s1`: 0% (inactive). For the compound `O=C(NCC1CCNCC1)c1coc2cc(-c3ccc(N4CCCCC4)cc3)ccc12`, for the setting “at 5 µM”, the inhibition was 59%. For the compound `Cc1cc(C#N)ccc1-c1ccc2[nH]c(C(=O)NCC3CCNCC3)cc2c1`, where the note is “at 5 µM”, the inhibition was 0% (inactive).

Take `O=C(NCC1CCNCC1)c1cc2ccc(N3CCC(N4CCCCC4)CC3)cc2s1`: the inhibition (at 5 µM) is 14% (inactive). As for `CC(C)(C)c1ccc(-c2ccc3sc(C(=O)NCC4CCNCC4)cc3c2)cc1`, the outcome was inactive. This compound also gave an inhibition (inhibition, at 20 µM) of 59%. The matching figures for `O=C(NCC1CCNCC1)c1cc2ccc(-c3ccc(C4CCCCC4)cc3)cc2o1`: “inactive” and 54%. For `O=C(NCC1CCNCC1)c1cc2ccc(-c3ccc(CCO)cc3)cc2[nH]1`, in that order: “inactive” and 22%. As to `CS(=O)(=O)c1ccc(-c2ccc3cc(C(=O)NCC4CCNCC4)oc3c2)cc1`, the inhibition (at 5 µM) is 19% (inactive). For `CC(C)(C)c1ccc(Nc2ccc3sc(C(=O)NCC4CCNCC4)cc3c2)cc1`, under “at 5 µM”, the inhibition is 45% (inactive).

For `O=C(NCC1CCNCC1)c1cc2ccc(-c3ccc(CO)cc3)cc2s1`, under “at 5 µM”, the inhibition was 0% (inactive). Still for that read-out and setting: under `O=C(NCC1CCNCC1)c1cc2cc(Nc3ccc(OC(F)(F)F)cc3)ccc2s1` stands 24% (inactive); under `O=C(NCC1CCNCC1)c1cc2ccc(-c3ccc(C(=O)N4CCC(N5CCCC5)CC4)cc3)cc2s1`, 5% (inactive). The same measure, in the same setting: next, `O=C(NCC1CCNCC1)c1cc2ccc(-c3ccc(C(=O)N4CCCCCC4)cc3)cc2o1`: 0% (inactive); `O=C(NCC1CCNCC1)c1cc2ccc(-c3ccc(F)cc3)cc2s1`: 21% (inactive). Consider `O=C(NCC1CCNCC1)c1cc2cc(-c3ccc(N4CCOCC4)cc3)ccc2[nH]1`, for which the inhibition (at 5 µM) is 52% (inactive). `O=C(NCC1CCNCC1)c1cc2ccc(-c3ccc(C(=O)N4CCCC4)cc3)cc2s1`: where the note is “at 5 µM”, the inhibition was 0% (inactive). In the case of `COc1ccc(Oc2ccc3cc(C(=O)NCC4CCNCC4)oc3c2)cc1`, the inhibition (at 5 µM) is 24% (inactive).

With `CS(=O)(=O)c1ccc(-c2ccc3cc(C(=O)NCC4CCNCC4)sc3c2)cc1`, for the setting “at 5 µM”, the inhibition was 49% (inactive).

Consider `O=C(NCC1CCNCC1)c1cc2ccc(-c3ccc(C(=O)N4CCCCC4)cc3)cc2s1`, for which the inhibition (at 5 µM) was 8% (inactive).

Take `O=C(NCC1CCNCC1)c1cc2ccc(-c3ccc(C4CCCCC4)cc3)cc2[nH]1`: the inhibition (at 5 µM) is 31% (inactive).

In the case of `CCN(CC)c1ccc(-c2ccc3cc(C(=O)NCC4CCNCC4)oc3c2)cc1`, for the setting “at 5 µM”, the inhibition is 30% (inactive).

`O=C(NCC1CCNCC1)c1cc2ccc(-c3ccc(N4CCOCC4)cc3)cc2o1`: for the setting “at 5 µM”, the inhibition is 40% (inactive).

In the case of `CC(C)(C)c1ccc(-c2ccc3[nH]c(C(=O)NCC4CCNCC4)cc3c2)cc1`, the inhibition (at 5 µM) was 13% (inactive).

On to `CC(=O)c1ccc(-c2ccc3cc(C(=O)NCC4CCNCC4)[nH]c3c2)cc1`, for which the inhibition (at 5 µM) was 37% (inactive). Take `O=C(NCC1CCNCC1)c1c[nH]c2ccc(-c3ccc(N4CCCCC4)cc3)cc12`: the inhibition (at 5 µM) was 43% (inactive). Take `O=C(NCC1CCNCC1)c1cc2ccc(-c3ccc(C(=O)N4CCCCC4)cc3)cc2o1`: where the note is “at 5 µM”, the inhibition was 0% (inactive). With `O=C(NCC1CCNCC1)c1cc2ccc(-c3ccc(Cl)cc3)cc2s1`, the inhibition (at 5 µM) was 50% (inactive).

As for `O=C(NCC1CCNCC1)c1cc2ccc(-c3ccc(CN4CCCCC4)cc3)cc2s1`, the inhibition (at 5 µM) is 45% (inactive).

For `CC(C)(C)c1ccc(-c2ccc3cc(C(=O)NCC4CCNCC4)sc3c2)cc1`, the result was inactive. In addition, the inhibition (inhibition, at 20 µM) turned out to be 70%. With `N#CCc1ccc(-c2ccc3cc(C(=O)NCC4CCNCC4)sc3c2)cc1`, for the setting “at 5 µM”, the inhibition was 50% (inactive).

With `NC(=O)c1ccc(-c2ccc3cc(C(=O)NCC4CCNCC4)sc3c2)cc1`, for the setting “at 5 µM”, the inhibition is 0% (inactive).

On to `O=C(NCC1CCNCC1)c1cc2cc(-c3ccc(-c4ccsc4)cc3)ccc2[nH]1`, for which the inhibition (at 5 µM) is 14% (inactive).

In the case of `Cc1ccc(-c2ccc3cc(C(=O)NCC4CCNCC4)sc3c2)cc1`, the inhibition (at 5 µM) is 47% (inactive).

With `N#Cc1cccc(-c2ccc3cc(C(=O)NCC4CCNCC4)[nH]c3c2)c1`, under “at 5 µM”, the inhibition was 0% (inactive). For `O=C(NCC1CCNCC1)c1cc2ccc(Nc3ccc(N4CCCCC4)cc3)cc2o1`, under “at 5 µM”, the inhibition is 93%.

For `N#Cc1ccc(-c2ccc3[nH]c(C(=O)NCC4CCNCC4)cc3c2)cc1F`, the inhibition (at 5 µM) was 8% (inactive).

Turning to `O=C(NCC1CCNCC1)c1cc2ccc(-c3ccc(N4CCOCC4)cc3)cc2[nH]1`, for the setting “at 5 µM”, the inhibition was 29% (inactive). Turning to `O=C(NCC1CCNCC1)c1cc2ccc(-c3ccc(C(=O)N4CCCC4)cc3)cc2o1`, where the note is “at 5 µM”, the inhibition is 1% (inactive). For `N#Cc1ccc(-c2ccc3cc(C(=O)NCC4CCNCC4)oc3c2)cc1`, the outcome was inactive. Moreover, the inhibition (inhibition, at 20 µM) is 38%.

(Values after PubChem BioAssay AID1794804 (Yongcheng Song lab at Baylor College of Medicine, 2022).)
